For the test, the system named is PKB Ser473 phosphorylation in Rat1-myr-HA-p110 delta cells. Briefly: Reverse protein array, PKB Ser473 phosphorylation in Rat1-myr-HA-p110 delta cells. In kind it is cell-based. The settings on record: Rattus norvegicus, 0.5 h, 30 minutes compound incubation, read-out: p-PKB/IC50_delta.

Consider `COCCOc1ccc(-n2c(=O)n(C)c3cnc4ccc(-c5cnc(N)c(C(F)(F)F)c5)cc4c32)c(C)n1` [Example 13.2, 8-(6-Amino-5-trifluoromethyl-pyridin-3-yl)-1-[6-(2-methoxy-ethoxy)-2-methyl-pyridin-3-yl]-3-methyl-1,3-dihydro-imidazo[4,5-c]quinolin-2-one], for which the IC50 was 29.4 nM.

Turning to `CNc1ccc(-c2ccc3ncc4c(c3c2)n(-c2ccc(OCCOC)nc2C)c(=O)n4C)cn1` [Example 13.3, 1-[6-(2-Methoxy-ethoxy)-2-methyl-pyridin-3-yl]-3-methyl-8-(6-methylamino-pyridin-3-yl)-1,3-dihydro-imidazo[4,5-c]quinolin-2-one], the IC50 worked out at 38.5 nM. The same measure for `CCNc1cc(-c2ccc3ncc4c(c3c2)n(-c2ccc(OCCOC)nc2C)c(=O)n4C)cnc1C` [Example 13.4, 8-(5-Ethylamino-6-methyl-pyridin-3-yl)-1-[6-(2-methoxy-ethoxy)-2-methyl-pyridin-3-yl]-3-methyl-1,3-dihydro-imidazo[4,5-c]quinolin-2-one]: < 4.57 nM; for `CNc1ncc(-c2ccc3ncc4c(c3c2)n(-c2ccc(OCCOC)nc2C)c(=O)n4C)cn1` [Example 13.5, 1-[6-(2-Methoxy-ethoxy)-2-methyl-pyridin-3-yl]-3-methyl-8-(2-methylamino-pyrimidin-5-yl)-1,3-dihydro-imidazo[4,5-c]quinolin-2-one]: 37.1 nM; for `CCOc1ccc(-c2ccc3ncc4c(c3c2)n(-c2ccc(C)nc2C)c(=O)n4C)cn1` [Example 14.2, 1-(2,6-Dimethyl-pyridin-3-yl)-8-(6-ethoxy-pyridin-3-yl)-3-methyl-1,3-dihydro-imidazo[4,5-c]quinolin-2-one]: 68.1 nM. The same measure for `Cc1ccc(-n2c(=O)n(C)c3cnc4ccc(-c5cnc(N(C)C)nc5)cc4c32)c(C)n1` [Example 14.3, 8-(2-Dimethylamino-pyrimidin-5-yl)-1-(2,6-dimethyl-pyridin-3-yl)-3-methyl-1,3-dihydro-imidazo[4,5-c]quinolin-2-one]: 122 nM; for `CNc1ncc(-c2ccc3ncc4c(c3c2)n(-c2ccc(C)nc2C)c(=O)n4C)cn1` [Example 14.4, 1-(2,6-Dimethyl-pyridin-3-yl)-3-methyl-8-(2-methylamino-pyrimidin-5-yl)-1,3-dihydro-imidazo[4,5-c]quinolin-2-one]: 32.6 nM; for `Cc1ccc(-n2c(=O)n(C)c3cnc4ccc(-c5cnc(N)c(C(F)(F)F)c5)cc4c32)c(C)n1` [Example 14.5, 8-(6-Amino-5-trifluoromethyl-pyridin-3-yl)-1-(2,6-dimethyl-pyridin-3-yl)-3-methyl-1,3-dihydro-imidazo[4,5-c]quinolin-2-one]: 14.4 nM.

Consider `CCNc1cc(-c2ccc3ncc4c(c3c2)n(-c2ccc(C)nc2C)c(=O)n4C)cnc1C` [Example 14.6, 1-(2,6-Dimethyl-pyridin-3-yl)-8-(5-ethylamino-6-methyl-pyridin-3-yl)-3-methyl-1,3-dihydro-imidazo[4,5-c]quinolin-2-one], for which the IC50 is < 4.57 nM.

Turning to `Cc1ccc(-n2c(=O)n(C)c3cnc4ccc(-c5cnc6c(ccn6C)c5)cc4c32)c(C)n1` [Example 14.7, 1-(2,6-Dimethyl-pyridin-3-yl)-3-methyl-8-(1-methyl-1H-pyrrolo[2,3-b]pyridin-5-yl)-1,3-dihydro-imidazo[4,5-c]quinolin-2-one], the IC50 was 45.4 nM. The same measure for `Cc1ccc(-n2c(=O)n(C)c3cnc4ccc(-c5cncc(NC(C)C)c5)cc4c32)c(C)n1` [Example 14.8, 1-(2,6-Dimethyl-pyridin-3-yl)-8-(5-isopropylamino-pyridin-3-yl)-3-methyl-1,3-dihydro-imidazo[4,5-c]quinolin-2-one]: 34.4 nM; for `COCCN(C)c1ccc(-n2c(=O)n(C)c3cnc4ccc(-c5cnc(N)c(C(F)(F)F)c5)cc4c32)c(C)n1` [Example 15.1, 8-(6-Amino-5-trifluoromethyl-pyridin-3-yl)-1-{6-[(2-methoxy-ethyl)-methyl-amino]-2-methyl-pyridin-3-yl}-3-methyl-1,3-dihydro-imidazo[4,5-c]quinolin-2-one]: 13.3 nM; for `CNc1ncc(-c2ccc3ncc4c(c3c2)n(-c2ccc(N(C)CCOC)nc2C)c(=O)n4C)cn1` [Example 15.2, 1-{6-[(2-Methoxy-ethyl)-methyl-amino]-2-methyl-pyridin-3-yl}-3-methyl-8-(2-methylamino-pyrimidin-5-yl)-1,3-dihydro-imidazo[4,5-c]quinolin-2-one]: 53.3 nM. The same measure for `CCOc1ccc(-c2ccc3ncc4c(c3c2)n(-c2ccc(N(C)CCOC)nc2C)c(=O)n4C)cn1` [Example 15.3, 8-(6-Ethoxy-pyridin-3-yl)-1-{6-[(2-methoxy-ethyl)-methyl-amino]-2-methyl-pyridin-3-yl}-3-methyl-1,3-dihydro-imidazo[4,5-c]quinolin-2-one]: 212 nM. Then `CNc1ccc(-c2ccc3ncc4c(c3c2)n(-c2ccc(N(C)CCOC)nc2C)c(=O)n4C)cn1` [Example 15.4, 1-{6-[(2-Methoxy-ethyl)-methyl-amino]-2-methyl-pyridin-3-yl}-3-methyl-8-(6-methylamino-pyridin-3-yl)-1,3-dihydro-imidazo[4,5-c]quinolin-2-one], with 31.3 nM. Regarding `COCCN(C)c1ccc(-n2c(=O)n(C)c3cnc4ccc(-c5cnc(N(C)C)nc5)cc4c32)c(C)n1` [Example 15.5, 8-(2-Dimethylamino-pyrimidin-5-yl)-1-{6-[(2-methoxy-ethyl)-methyl-amino]-2-methyl-pyridin-3-yl}-3-methyl-1,3-dihydro-imidazo[4,5-c]quinolin-2-one], the IC50 came to 229 nM.

Turning to `CCNc1cc(-c2ccc3ncc4c(c3c2)n(-c2ccc(N(C)CCOC)nc2C)c(=O)n4C)cnc1C` [Example 15.6, 8-(5-Ethylamino-6-methyl-pyridin-3-yl)-1-{6-[(2-methoxy-ethyl)-methyl-amino]-2-methyl-pyridin-3-yl}-3-methyl-1,3-dihydro-imidazo[4,5-c]quinolin-2-one], the IC50 worked out at 6.8 nM. The same measure for `COCCN(C)c1ccc(-n2c(=O)n(C)c3cnc4ccc(-c5cnc6c(ccn6C)c5)cc4c32)c(C)n1` [Example 15.7, 1-{6-[(2-Methoxy-ethyl)-methyl-amino]-2-methyl-pyridin-3-yl}-3-methyl-8-(1-methyl-1H-pyrrolo[2,3-b]pyridin-5-yl)-1,3-dihydro-imidazo[4,5-c]quinolin-2-one]: 44.3 nM; for `COCCN(C)c1ccc(-n2c(=O)n(C)c3cnc4ccc(-c5cncc(N)c5)cc4c32)c(C)n1` [Example 15.8, 8-(5-Amino-pyridin-3-yl)-1-{6-[(2-methoxy-ethyl)-methyl-amino]-2-methyl-pyridin-3-yl}-3-methyl-1,3-dihydro-imidazo[4,5-c]quinolin-2-one]: 59.7 nM.

`COCCN(C)c1ccc(-n2c(=O)n(C)c3cnc4ccc(-c5cnc(CO)c(OC)c5)cc4c32)c(C)n1` [Example 15.9, 8-(6-Hydroxymethyl-5-methoxy-pyridin-3-yl)-1-{6-[(2-methoxy-ethyl)-methyl-amino]-2-methyl-pyridin-3-yl}-3-methyl-1,3-dihydro-imidazo[4,5-c]quinolin-2-one]: the IC50 came out at 38.8 nM.

The values are drawn from patent publication US20100311714A1, “1H-IMIDAZO[4,5-c]QUINOLINONE COMPOUNDS” (priority 2009, published 2010).
